Residues, ends and D or L forms follow the SMILES beside them.

These results are taken from paper PMC4764553, “Human cytomegalovirus IE1 protein alters the higher-order chromatin structure by targeting the acidic patch of the nucleosome” (eLife, 2016).

In test [1] the target is T1, NCP (nucleosome core particle) (Homo sapiens, UniProt P04908+P06899+P62805+P68431).
T1 construct: made in house; host or cells: E. coli BL21(DE3)-RIL
The test is described as follows: biochemical. The test is classed as binding.

Test [2] has as its target T1, NCP (nucleosome core particle). The test is described as follows: ITC measurement of full-length IE1, IE1-CTD and IE1ΔCTD binding to NCP at 150 mM NaCl. In general terms: ITC needs no label: the signal is the heat of the interaction.
The target in test [3] is T2, human NCP carrying the E56R mutation of histone H2A (Homo sapiens, UniProt P04908+P06899+P62805+P68431, E57R).
T2 construct: made in house; host or cells: E. coli BL21(DE3)-RIL
The test is described as follows: ITC measurement of peptide binding to NCP reconstituted with H2A E56R mutant. Conditions: 20°C, 10 mM Tris-HCl pH 7.5, 50 mM NaCl, Figure 3.

For the next test, the system named is 30-nm chromatin fiber. The test is described as follows: AUC sedimentation velocity of 30-nm chromatin fiber (with H1). The conditions noted are these: 12 x 177 bp 601 array with H1, […], peptide/protein to NCP 5:1 molar ratio, 10 mM HEPES pH 8.0, 0.1 mM EDTA, listed as LANA-CTD. It is filed as biochemical, human. The procedure:
(§1) Recombinant human core histones were prepared as described above. Linker histone H1.4 and DNA templates of 12 tandem 177 bp repeats of the 601 sequence were cloned and purified, and reconstituted into chromatin as previously described ([Chen et al., 2013]; [Dyer et al., 2003]; [Li et al., 2010]; [Song et al., 2014]).
(§2) The reconstituted chromatin samples were subject to AUC analysis in a buffer containing 10 mM HEPES, pH 8.0 and 0.1 mM EDTA.

The subject of a further test is 10-nm nucleosomal array. The test is described as follows: AUC sedimentation velocity of 10-nm nucleosomal array (without H1). The test is classed as biochemical, human. The conditions noted are these: 12 x 177 bp 601 array without H1, […], peptide to NCP 5:1 molar ratio, 10 mM HEPES pH 8.0, 0.1 mM EDTA, array alone Save 36 ± 1 S, listed as LANA-CTD. The procedure: as §1, §2

A further test deals with nucleosomal arrays. The conditions noted are these: folding of nucleosomal arrays induced by magnesium ions; ref Chodaparambil et al., 2007; cited from earlier work. The source says:
For the purpose of dissecting the functions of individual NCP binding partners, one would ideally like to be able to isolate histone mutants that affect the binding of one protein but not others. The most promising such sites appear to lie in zone II and III, as they are less frequently occupied among known NCP binding proteins (Figure 2). […] Nevertheless, the identification of the E56R variant of histone H2A as an IE1-noninteracting mutant has already se ...

For the molecule `CSCC[C@H](NC(=O)[C@@H]1CCCN1C(=O)[C@H](C)NC(=O)[C@@H](NC(=O)[C@H](CO)NC(=O)[C@H](CCCCN)NC(=O)CNC(=O)CN)[C@@H](C)O)C(=O)N[C@H](C(=O)N[C@H](C(=O)N[C@@H](CCCNC(=N)N)C(=O)N[C@@H](CO)C(=O)N[C@@H](CCCCN)C(=O)N[C@@H](C)C(=O)N[C@@H](CC(=O)O)C(=O)N[C@@H](CCC(N)=O)C(=O)O)[C@@H](C)O)C(C)C` [H481A] (H-GGKSTAPMVTRSKADQ-OH), the affinity in test [1], expressed as Kd, was 43.4 ± 5.36 µM.

As for `CSCC[C@H](NC(=O)[C@@H]1CCCN1C(=O)[C@H](Cc1c[nH]cn1)NC(=O)[C@@H](NC(=O)[C@H](CO)NC(=O)[C@H](CCCCN)NC(=O)CNC(=O)CN)[C@@H](C)O)C(=O)N[C@H](C(=O)N[C@H](C(=O)N[C@@H](CCCNC(=N)N)C(=O)N[C@@H](CO)C(=O)N[C@@H](CCCCN)C(=O)N[C@@H](C)C(=O)N[C@@H](CC(=O)O)C(=O)N[C@@H](CCC(N)=O)C(=O)O)[C@@H](C)O)C(C)C` [IE1-CTD], the Kd (in general, the equilibrium constant for the complex coming apart) in test [1] amounted to 0.42 ± 0.04 µM; in test [2] it was 2.25 ± 0.1 µM.

As for `CSCC[C@H](NC(=O)CNC(=O)[C@@H]1CCCN1)C(=O)N[C@@H](CCCNC(=N)N)C(=O)N[C@@H](CC(C)C)C(=O)N[C@@H](CCCNC(=N)N)C(=O)N[C@@H](CO)C(=O)NCC(=O)N[C@@H](CCCNC(=N)N)C(=O)N[C@@H](CO)C(=O)N[C@H](C(=O)NCC(=O)N[C@@H](C)C(=O)N1CCC[C@H]1C(=O)O)[C@@H](C)O` [LANA] (H-PGMRLRSGRSTGAP-OH; N-terminus and C-terminus assumed), the “N (ITC)” value in test [1] (ITC, 20°C, 10 mM Tris-HCl pH 7.5, 50 mM NaCl, human NCP, Figure 3) was 1.97. Further, the “N (ITC), H2A E56R NCP” value in test [3] stood at 2.03. The “effect on folding of 30-nm chromatin fiber (in words)” value with 30-nm chromatin fiber is “does not affect the folding of the 30-nm chromatin fiber”. The “effect on 10-nm nucleosomal array (in words)” value in the test with 10-nm nucleosomal array is reported as “slightly affected”. The “compaction of nucleosomal arrays (in words)” value in the test with nucleosomal arrays is listed as “promotes the compaction of nucleosomal arrays”.

In the case of `CSCC[C@H](NC(=O)[C@@H]1CCCN1C(=O)[C@H](Cc1c[nH]cn1)NC(=O)[C@@H](NC(=O)[C@H](CO)NC(=O)[C@H](CCCCN)NC(=O)CNC(=O)CN)[C@@H](C)O)C(=O)N[C@H](C(=O)N[C@H](C(=O)N[C@@H](CCCNC(=N)N)C(=O)N[C@@H](CO)C(=O)N[C@@H](CCCCN)C(=O)N[C@@H](C)C(=O)N[C@@H](CC(=O)O)C(=O)N[C@@H](CCC(N)=O)C(=O)O)C(C)C)C(C)C` [T485V] (H-GGKSTHPMVVRSKADQ-OH), the affinity in test [1], expressed as Kd, was 11.3 ± 0.73 µM.

The molecule `CSCC[C@H](NC(=O)[C@@H]1CCCN1C(=O)[C@@H](N)Cc1c[nH]cn1)C(=O)N[C@H](C(=O)N[C@H](C(=O)N[C@@H](CCCNC(=N)N)C(=O)N[C@@H](CO)C(=O)N[C@@H](CCCCN)C(=O)N[C@@H](C)C(=O)N[C@@H](CC(=O)O)C(=O)N[C@@H](CCC(N)=O)C(=O)O)[C@@H](C)O)C(C)C` [Δ476–480] (H-HPMVTRSKADQ-OH) showed a Kd in test [1] of 12.1 ± 0.45 µM.
